# Data reported in ChEMBL document CHEMBL1201862, “PubChem BioAssay data set” (2004).
# Calls of active or inactive are those of the source.
# Key:
# [1] = molecular target: Estrogen receptor beta (Homo sapiens, UniProt Q92731); assay: ERβ–SRC-3 coactivator interaction inhibitors, confirmation, orthogonal assay, biochemical, ELISA, streptavidin-HRP readout (AID 1060)
# [2] = human group III sPLA2 inhibitors, dose response, biochemical, QFRET, IC50 (AID 743457);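 further: green fluorescence rise as the enzyme cleaves BODIPY PC-A2 in liposomes; potency for inhibition of the enzyme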
# [3] = cells
# [4] = HEp-2 cell cytotoxicity, dose response, cytotoxicity control for RSV inhibitor project, HTS (AID 2410); type: functional; conditions: human respiratory syncytial virus
# [5] = molecular target: T1, Polyadenylate-binding protein 1 (Homo sapiens, UniProt P11940); assay: PABP1 MLLE–PAM2 binding inhibitor potency, dose response, biochemical, fluorescence polarization, FITC-PAM2 peptide (AID 602259); type: functional; conditions: read-out: IC50_Mean
# T1 sequence (P11940 whole entry): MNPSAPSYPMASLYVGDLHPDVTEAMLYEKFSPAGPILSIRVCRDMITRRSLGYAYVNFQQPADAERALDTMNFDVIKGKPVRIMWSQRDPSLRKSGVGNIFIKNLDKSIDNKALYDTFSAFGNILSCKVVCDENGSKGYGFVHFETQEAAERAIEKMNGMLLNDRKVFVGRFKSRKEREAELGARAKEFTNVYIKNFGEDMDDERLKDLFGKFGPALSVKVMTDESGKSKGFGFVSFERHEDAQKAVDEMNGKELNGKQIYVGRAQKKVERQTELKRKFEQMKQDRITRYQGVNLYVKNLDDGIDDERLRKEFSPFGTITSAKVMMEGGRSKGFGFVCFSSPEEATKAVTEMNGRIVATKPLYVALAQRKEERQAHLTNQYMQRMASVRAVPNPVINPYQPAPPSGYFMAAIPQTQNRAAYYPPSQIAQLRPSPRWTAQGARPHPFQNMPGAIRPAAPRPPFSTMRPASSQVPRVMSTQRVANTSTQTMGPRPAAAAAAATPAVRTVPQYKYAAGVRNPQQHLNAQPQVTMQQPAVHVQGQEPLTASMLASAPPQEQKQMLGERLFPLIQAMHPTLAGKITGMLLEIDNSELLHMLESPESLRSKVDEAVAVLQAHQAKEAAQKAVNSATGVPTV
# [6] = molecular target: T1, Polyadenylate-binding protein 1; assay: PABP1 MLLE–PAM2 interaction inhibitors, dose response, miRNA deadenylation inhibitor project, biochemical, fluorescence polarization, Cy5-PAM2 peptide, secondary (AID 602260); type: functional; conditions: read-out: IC50_Mean
# [7] = molecular target: T2, Protein Tat (Human immunodeficiency virus type 1 group M subtype B (isolate HXB2)(HIV-1), UniProt P04608); type: functional;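 further: tat binding to TAR RNA read out by fluorescence polarization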
# T2 sequence (P04608 whole entry): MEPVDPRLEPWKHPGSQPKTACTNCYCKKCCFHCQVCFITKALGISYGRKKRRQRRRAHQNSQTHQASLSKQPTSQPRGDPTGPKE
# [8] = cytotoxicity toward HT-29 cells – cell-based, CellTiter-Glo luminescence, IC50, dose response (AID 1117330); type: functional
# [9] = cytotoxicity toward Colo320 cells – cell-based, CellTiter-Glo luminescence, IC50, dose response (AID 1117334); type: functional; conditions: COLO 320
# [10] = Concentration-dependent survival of SW480 colon cancer line, luminescence detection with CellTiter-Glo, half-maximal inhibitory concentration (AID 1117338); type: functional
# [11] = cytotoxicity toward HCT116 cells – cell-based, CellTiter-Glo luminescence, IC50, dose response (AID 1117332); type: functional; conditions: HCT-116
# [12] = HeLa 4N DNA content increase, dose response, cell-based, IC50 (AID 1117351); type: functional
# [13] = HeLa 2N DNA content increase, dose response, cell-based, IC50 (AID 1117349); type: functional
# [14] = RKO cell viability reduction, dose response, CellTiter-Glo luminescence (AID 1117322); type: functional
# [15] = CellTiter-Glo luminescent dose response of DLD-1 viability loss (AID 1117352); type: functional
# [16] = SNU-C1 cell viability reduction, dose response, CellTiter-Glo luminescence (AID 1117323); type: functional, cell-based
# [17] = HCT116 cell viability decrease, GSK3B pretreatment – CellTiter-Glo, IC50, dose response (AID 1117339); type: functional; conditions: HCT-116
# [18] = molecular target: T3, Neuropeptide Y receptor type 1 (Homo sapiens, UniProt P25929); type: functional;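 further: HEK293 cells with a CNG channel challenged with NPY then isoproterenol; potency as antagonist that reverses NPY suppression of cAMP signal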
# T3 sequence (P25929 whole entry): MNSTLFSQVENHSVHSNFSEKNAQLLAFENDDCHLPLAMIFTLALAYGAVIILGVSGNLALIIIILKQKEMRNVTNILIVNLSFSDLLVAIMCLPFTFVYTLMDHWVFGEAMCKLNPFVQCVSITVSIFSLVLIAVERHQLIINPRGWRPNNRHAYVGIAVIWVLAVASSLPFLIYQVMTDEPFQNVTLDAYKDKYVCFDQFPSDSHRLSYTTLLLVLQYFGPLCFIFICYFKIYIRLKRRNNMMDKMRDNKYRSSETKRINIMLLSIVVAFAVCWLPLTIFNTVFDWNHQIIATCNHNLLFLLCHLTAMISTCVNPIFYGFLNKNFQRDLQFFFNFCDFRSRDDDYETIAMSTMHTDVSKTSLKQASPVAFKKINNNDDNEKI
# [19] = molecular target: T4, Neuropeptide Y receptor type 2 (Homo sapiens, UniProt P49146); type: functional, cell-based;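 further: HEK293 cells expressing the receptor and a CNG channel; stimulus was NPY near EC95 followed by isoproterenol to raise cAMP; antagonist potency measured as restoring cAMP signal that NPY suppresses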
# T4 sequence (P49146 whole entry): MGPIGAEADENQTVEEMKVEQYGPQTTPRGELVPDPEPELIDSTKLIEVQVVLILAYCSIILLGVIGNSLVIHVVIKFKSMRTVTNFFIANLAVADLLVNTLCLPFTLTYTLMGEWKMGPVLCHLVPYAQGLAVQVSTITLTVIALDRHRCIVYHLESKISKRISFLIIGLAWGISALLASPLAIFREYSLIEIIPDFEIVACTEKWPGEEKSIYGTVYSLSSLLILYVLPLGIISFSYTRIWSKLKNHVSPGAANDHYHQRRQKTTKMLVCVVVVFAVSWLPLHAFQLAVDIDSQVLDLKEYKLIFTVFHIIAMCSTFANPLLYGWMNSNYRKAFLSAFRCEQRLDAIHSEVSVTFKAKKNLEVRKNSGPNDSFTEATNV
# [20] = molecular target: T5, Type-1 angiotensin II receptor (Homo sapiens, UniProt P30556); assay: AT1 receptor antagonists, dose response, selectivity assay for APJ receptor antagonist project, cell-based, uHTS hits (AID 463214); type: functional;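 further: antagonist potency against angiotensin II stimulated AT1 response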
# T5 sequence (P30556 whole entry): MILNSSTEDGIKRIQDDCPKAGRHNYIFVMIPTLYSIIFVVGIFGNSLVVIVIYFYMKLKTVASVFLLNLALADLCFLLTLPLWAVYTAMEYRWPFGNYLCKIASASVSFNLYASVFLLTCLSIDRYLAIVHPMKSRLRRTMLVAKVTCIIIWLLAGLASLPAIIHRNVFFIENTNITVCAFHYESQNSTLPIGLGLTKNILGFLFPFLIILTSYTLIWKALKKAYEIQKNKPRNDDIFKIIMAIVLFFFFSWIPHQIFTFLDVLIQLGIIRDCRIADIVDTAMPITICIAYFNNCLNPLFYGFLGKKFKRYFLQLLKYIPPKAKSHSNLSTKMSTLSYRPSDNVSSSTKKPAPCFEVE
# [21] = molecular target: Beta-galactosidase (Escherichia coli, UniProt Q8VNN2); assay: PubChem AID 485352; type: functional
# Beta-galactosidase, sequence (Q8VNN2 whole entry): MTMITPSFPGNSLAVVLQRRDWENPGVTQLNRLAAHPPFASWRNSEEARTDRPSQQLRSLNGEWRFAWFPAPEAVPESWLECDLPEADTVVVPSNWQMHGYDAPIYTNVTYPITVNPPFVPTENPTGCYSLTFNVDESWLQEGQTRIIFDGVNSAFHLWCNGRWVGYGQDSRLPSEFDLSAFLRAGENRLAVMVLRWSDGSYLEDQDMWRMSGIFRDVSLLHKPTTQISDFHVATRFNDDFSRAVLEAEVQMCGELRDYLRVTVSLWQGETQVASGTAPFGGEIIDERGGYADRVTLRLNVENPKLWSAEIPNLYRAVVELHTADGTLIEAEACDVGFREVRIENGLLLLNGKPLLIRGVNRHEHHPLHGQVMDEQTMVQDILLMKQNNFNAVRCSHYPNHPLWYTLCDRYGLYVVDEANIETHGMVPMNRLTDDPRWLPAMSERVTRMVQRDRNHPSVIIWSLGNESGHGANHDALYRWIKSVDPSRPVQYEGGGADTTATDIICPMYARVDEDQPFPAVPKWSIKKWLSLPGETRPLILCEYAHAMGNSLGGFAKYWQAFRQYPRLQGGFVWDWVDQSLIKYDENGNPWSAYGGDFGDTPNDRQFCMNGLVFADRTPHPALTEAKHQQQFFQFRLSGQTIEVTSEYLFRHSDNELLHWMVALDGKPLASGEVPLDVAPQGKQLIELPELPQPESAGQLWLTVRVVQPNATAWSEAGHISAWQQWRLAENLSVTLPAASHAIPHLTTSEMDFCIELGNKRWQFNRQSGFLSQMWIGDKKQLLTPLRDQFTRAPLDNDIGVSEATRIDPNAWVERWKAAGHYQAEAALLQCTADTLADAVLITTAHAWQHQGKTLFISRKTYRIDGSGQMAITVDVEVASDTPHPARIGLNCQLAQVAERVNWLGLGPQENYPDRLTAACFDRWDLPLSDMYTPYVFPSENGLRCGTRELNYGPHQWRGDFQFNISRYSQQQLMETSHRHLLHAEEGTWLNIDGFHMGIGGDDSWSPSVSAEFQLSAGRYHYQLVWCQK
# [22] = cytotoxicity in OVCAR8 ovarian cancer cells, dose response, PAX8 project, cell-based, plate reader, dry powder samples (AID 743197); type: functional; conditions: OVCAR-8
# [23] = molecular target: Paired box protein Pax-8 (Homo sapiens, UniProt Q06710); assay: inhibitors of PAX8-driven TPO luciferase reporter, dose response, RMG-I cells, cherry-pick (AID 687027); type: functional, cell-based;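 further: luciferase reporter driven by Pax8 target thyroperoxidase promoter measured by SteadyGlo luminescence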
# Paired box protein Pax-8, sequence (Q06710 whole entry): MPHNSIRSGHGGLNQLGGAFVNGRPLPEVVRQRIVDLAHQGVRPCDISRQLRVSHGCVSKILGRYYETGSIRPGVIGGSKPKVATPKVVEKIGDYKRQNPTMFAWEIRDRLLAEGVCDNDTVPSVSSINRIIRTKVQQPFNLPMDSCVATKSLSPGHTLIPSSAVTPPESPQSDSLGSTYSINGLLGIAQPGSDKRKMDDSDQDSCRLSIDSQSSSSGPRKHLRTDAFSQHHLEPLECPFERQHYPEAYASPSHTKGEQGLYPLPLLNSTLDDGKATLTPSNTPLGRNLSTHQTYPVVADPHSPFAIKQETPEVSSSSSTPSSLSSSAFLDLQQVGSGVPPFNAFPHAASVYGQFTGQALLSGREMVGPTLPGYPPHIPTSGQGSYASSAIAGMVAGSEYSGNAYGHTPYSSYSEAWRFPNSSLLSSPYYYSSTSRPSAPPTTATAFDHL
# [24] = molecular target: Albumin (Bos taurus, UniProt P02769); assay: Counterscreen for inhibitors of T-cell receptor (TCR)-CD3 interaction: Fluorescence-based biochemical high throughput dose response assay to identify inhibitors of T-cell receptor (TCR)-CD3 interaction using a TAMRA-labeled BSA probe.; type: functional
# Albumin, sequence (P02769 whole entry): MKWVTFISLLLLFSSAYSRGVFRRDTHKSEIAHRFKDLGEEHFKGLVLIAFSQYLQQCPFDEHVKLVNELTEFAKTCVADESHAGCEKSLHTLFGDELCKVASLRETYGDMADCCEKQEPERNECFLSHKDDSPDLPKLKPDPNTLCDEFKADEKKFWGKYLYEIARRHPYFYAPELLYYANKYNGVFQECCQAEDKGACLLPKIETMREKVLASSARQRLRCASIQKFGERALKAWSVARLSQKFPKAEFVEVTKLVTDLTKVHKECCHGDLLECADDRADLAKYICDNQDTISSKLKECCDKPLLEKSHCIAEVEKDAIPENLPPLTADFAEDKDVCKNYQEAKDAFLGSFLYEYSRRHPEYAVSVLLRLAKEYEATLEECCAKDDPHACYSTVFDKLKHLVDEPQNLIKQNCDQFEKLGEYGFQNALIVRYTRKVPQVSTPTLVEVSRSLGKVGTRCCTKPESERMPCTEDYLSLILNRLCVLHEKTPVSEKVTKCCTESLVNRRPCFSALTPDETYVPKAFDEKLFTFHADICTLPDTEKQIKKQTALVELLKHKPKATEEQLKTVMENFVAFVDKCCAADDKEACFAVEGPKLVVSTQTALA
# [25] = NIH-3T3 fibroblast cytotoxicity, dose response, cytotoxicity control, cell-based, fluorescence, Alamar Blue, secondary assay (AID 2327); type: functional;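 further: NIH-3T3 mouse fibroblasts cultured with fluconazole at 8 µg/mL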
# [26] = C. albicans growth with fluconazole, confirmation, fluorescence, retest (AID 2467); type: functional, cell-based
# [27] = molecular target: Genome polyprotein (dengue virus type 2, UniProt P29990); assay: Dengue-2 NS5 methyltransferase inhibitors, primary screen, biochemical, confirmation dose response (AID 588689); type: functional
# Genome polyprotein, sequence (P29990 2492-3391 limits assumed): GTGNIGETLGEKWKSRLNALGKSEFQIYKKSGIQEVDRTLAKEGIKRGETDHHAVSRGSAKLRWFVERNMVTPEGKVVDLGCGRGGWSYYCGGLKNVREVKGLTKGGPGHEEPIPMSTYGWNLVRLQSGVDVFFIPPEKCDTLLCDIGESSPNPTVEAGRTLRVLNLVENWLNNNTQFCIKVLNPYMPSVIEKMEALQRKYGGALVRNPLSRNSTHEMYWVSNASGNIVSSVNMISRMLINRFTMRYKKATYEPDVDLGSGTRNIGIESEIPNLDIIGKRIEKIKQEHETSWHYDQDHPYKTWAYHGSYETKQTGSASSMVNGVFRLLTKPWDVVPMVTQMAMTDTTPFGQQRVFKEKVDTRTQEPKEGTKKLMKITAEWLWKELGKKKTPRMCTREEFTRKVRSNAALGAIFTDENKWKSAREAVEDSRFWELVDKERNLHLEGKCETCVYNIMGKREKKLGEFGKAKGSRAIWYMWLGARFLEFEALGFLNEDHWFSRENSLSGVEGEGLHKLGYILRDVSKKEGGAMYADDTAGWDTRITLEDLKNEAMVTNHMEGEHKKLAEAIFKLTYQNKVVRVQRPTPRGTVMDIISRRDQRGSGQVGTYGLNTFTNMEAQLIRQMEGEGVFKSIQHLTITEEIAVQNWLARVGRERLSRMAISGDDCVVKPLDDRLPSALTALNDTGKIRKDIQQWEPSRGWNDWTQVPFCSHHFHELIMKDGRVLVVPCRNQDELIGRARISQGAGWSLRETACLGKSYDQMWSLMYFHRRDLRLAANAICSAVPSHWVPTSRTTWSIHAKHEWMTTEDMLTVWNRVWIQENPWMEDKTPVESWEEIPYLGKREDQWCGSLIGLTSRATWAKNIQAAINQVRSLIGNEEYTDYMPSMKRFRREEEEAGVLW
# [28] = molecular target: T6, Rac GTPase-activating protein 1 (Homo sapiens, UniProt Q9H0H5); assay: MgcRacGAP GTPase-activating activity inhibitors, confirmation, biochemical, ADP Hunter fluorescence, primary and confirmatory (AID 624330); type: functional
# T6 sequence (Q9H0H5 whole entry): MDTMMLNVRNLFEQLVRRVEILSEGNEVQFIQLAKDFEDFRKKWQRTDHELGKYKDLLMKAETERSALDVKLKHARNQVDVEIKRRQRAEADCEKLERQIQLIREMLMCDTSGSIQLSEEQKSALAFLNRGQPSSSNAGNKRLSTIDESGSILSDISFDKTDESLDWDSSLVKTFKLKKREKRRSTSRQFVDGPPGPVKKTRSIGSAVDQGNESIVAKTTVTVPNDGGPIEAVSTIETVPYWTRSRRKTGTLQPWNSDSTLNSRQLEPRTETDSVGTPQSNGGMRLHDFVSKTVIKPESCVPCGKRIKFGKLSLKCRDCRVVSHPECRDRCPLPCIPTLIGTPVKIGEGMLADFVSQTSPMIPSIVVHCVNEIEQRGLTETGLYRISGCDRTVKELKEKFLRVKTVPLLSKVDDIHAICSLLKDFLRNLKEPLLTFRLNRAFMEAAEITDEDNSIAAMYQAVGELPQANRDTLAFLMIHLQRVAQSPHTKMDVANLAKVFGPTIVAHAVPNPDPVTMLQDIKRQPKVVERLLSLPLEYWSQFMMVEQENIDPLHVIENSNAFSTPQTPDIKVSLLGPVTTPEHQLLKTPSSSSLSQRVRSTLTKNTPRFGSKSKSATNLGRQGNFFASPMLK
# [29] = HeLa cell cytotoxicity, dose response, cytotoxicity control for MgcRacGAP inhibitor project (AID 624300); type: functional
# [30] = molecular target: Large T antigen (Simian virus 40, UniProt P03070); type: functional, Betapolyomavirus macacae;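 further: Confirmatory-stage PubChem screen for compounds that inhibit SV40 T antigen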
# Large T antigen, sequence (P03070 whole entry): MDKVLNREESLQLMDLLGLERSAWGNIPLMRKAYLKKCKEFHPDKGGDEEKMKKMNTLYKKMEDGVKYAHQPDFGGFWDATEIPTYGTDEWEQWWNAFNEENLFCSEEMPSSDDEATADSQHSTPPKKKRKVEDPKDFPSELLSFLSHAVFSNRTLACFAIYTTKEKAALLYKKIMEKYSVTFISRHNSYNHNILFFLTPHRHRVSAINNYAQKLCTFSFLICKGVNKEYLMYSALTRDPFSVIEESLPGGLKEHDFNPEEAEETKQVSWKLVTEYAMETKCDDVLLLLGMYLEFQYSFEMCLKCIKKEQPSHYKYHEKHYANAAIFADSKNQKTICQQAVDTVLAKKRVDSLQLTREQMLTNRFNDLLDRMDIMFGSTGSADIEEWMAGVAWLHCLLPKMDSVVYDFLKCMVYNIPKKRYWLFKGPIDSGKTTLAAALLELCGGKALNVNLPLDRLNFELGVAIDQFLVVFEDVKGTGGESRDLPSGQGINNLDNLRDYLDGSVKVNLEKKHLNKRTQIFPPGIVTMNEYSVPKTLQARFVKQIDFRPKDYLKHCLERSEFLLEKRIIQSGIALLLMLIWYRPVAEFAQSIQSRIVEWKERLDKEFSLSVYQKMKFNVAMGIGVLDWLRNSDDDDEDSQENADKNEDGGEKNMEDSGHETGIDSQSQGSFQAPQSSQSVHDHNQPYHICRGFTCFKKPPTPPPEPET
# [31] = T. cruzi growth inhibition in host cells, dose response, cell-based, plate reader, dry powder, set 2 (AID 652275); type: functional
# Estrogen receptor beta, sequence (Q92731 whole entry): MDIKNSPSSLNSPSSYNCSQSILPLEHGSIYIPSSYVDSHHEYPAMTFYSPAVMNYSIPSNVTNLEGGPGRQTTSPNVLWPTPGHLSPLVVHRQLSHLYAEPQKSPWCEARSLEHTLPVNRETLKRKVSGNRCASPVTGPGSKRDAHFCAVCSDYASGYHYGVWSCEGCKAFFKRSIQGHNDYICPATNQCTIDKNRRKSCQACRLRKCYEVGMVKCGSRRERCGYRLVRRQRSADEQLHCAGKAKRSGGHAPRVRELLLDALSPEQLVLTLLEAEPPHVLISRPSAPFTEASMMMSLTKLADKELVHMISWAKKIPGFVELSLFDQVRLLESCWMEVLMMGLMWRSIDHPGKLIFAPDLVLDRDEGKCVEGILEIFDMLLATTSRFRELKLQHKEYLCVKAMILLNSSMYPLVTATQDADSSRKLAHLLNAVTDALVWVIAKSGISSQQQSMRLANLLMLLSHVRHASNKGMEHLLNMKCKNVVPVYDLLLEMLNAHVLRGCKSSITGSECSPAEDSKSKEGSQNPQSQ
compound,measurement,setting,value
N#Cc1ccc(N2CCN(C(=O)CCCCCn3c(=S)[nH]c4ccccc4c3=O)CC2)cc1,IC50,[1],10.5 µM (not active)
O=C1C(=O)N(Cc2ccc(-c3ccsc3)cc2)c2ccc(OC(F)(F)F)cc21,IC50,[2],25.5 µM (inactive)
COc1ccc(-c2cc(C(=O)N3CCCCCC3)c3ccccc3n2)c(OC)c1,IC50,[3],28 µM (active)
same,CC50,[4],40.8 µM (active)
C=CCn1c(SCC(=O)c2cc(C)n(C(C)COC)c2C)nc2sc(C)c(C)c2c1=O (centres undefined),IC50,[5],> 66 µM (inactive)
same,IC50,[6],> 66 µM (inactive)
same,IC50,[7],> 100 µM (active)
O=C(Nc1ccc(Br)cc1)c1cc(Br)cc(Br)c1O [TRIBROMSALAN],IC50,[8],0.001 µM (active)
same,IC50,[9],0.003 µM (active)
same,IC50,[10],0.001 µM (active)
same,IC50,[11],0.003 µM (active)
same,IC50,[12],> 10 µM (inactive)
same,IC50,[13],> 10 µM (inactive)
same,IC50,[14],0.003 µM (active)
same,IC50,[15],0.001 µM (active)
same,IC50,[16],0.001 µM (active)
same,IC50,[17],0.001 µM (active)
CCOP(=S)(OCC)SCSc1ccc(Cl)cc1 [CARBOFENOTION],IC50,[9],> 20 µM (inactive)
same,IC50,[10],> 20 µM (inactive)
same,IC50,[14],> 20 µM (inactive)
same,IC50,[15],> 20 µM (inactive)
same,IC50,[16],> 20 µM (inactive)
same,IC50,[17],> 20 µM (inactive)
Cc1ccc(S(=O)(=O)C(c2ccccc2)c2c(C)noc2C)cc1 (centres undefined),IC50,[18],> 35 µM (not active)
same,IC50,[19],3.92 µM (active)
CCN=C(S)NNc1nnc(-c2ccccc2)c(-c2ccccc2)n1,IC50,[2],> 122 µM (inactive)
same,IC50,[20],> 40 µM (not active)
same,EC50,[21],> 40 µM (inactive)
C[C@@H]1CCCCO[C@@H](CN(C)C(=O)Nc2cccc3ccccc23)[C@H](C)CN([C@H](C)CO)C(=O)c2cc(NS(=O)(=O)c3ccccc3)ccc2O1,AC50,[22],> 70 µM (inactive)
same,AC50,[23],3.66 µM (active)
Cc1n[nH]c(S/C(=C/c2ccc(OCc3ccc(C(=O)O)cc3)cc2)C(=O)O)n1,IC50,[24],> 94.1 µM (inactive)
CCC(NCCC(c1ccccc1)c1ccccc1)=C1C(=O)N(C)C(=O)N(C)C1=O,IC50,[18],5.26 µM (active)
same,IC50,[19],5.26 µM (active)
Cc1cc(C(=O)NNC(S)=NC(C)c2ccccc2)c2ccccc2n1 (centres undefined),IC50,[2],> 122 µM (inactive)
same,EC50,[25],> 150 µM (inactive)
same,EC50,[26],> 38 µM (not active)
CC1=NN(c2ccc(Cl)c(C(=O)O)c2)C(=O)/C1=C/c1ccc(-c2ccccc2[N+](=O)[O-])o1,IC50,[27],9.5 µM (active)
same,IC50,[28],28.7 µM (active)
same,CC50,[29],100 µM (active)
same,IC50,[30],15.7 µM (active)
O=C(Cc1ccccn1)N1CCCCN2[C@@H](CO)[C@H](c3ccc(-c4ccc(F)cc4)cc3)[C@@H]2C1,AC50,[31],1.43 µM (active)
COC(=O)Nc1nc2cc([S+]([O-])c3ccccc3)ccc2[nH]1 (centres undefined) [OXFENDAZOLE],IC50,[8],> 20 µM (inactive)
same,IC50,[10],> 20 µM (inactive)
same,IC50,[11],0.001 µM (active)
same,IC50,[12],0.331 µM (active)
same,IC50,[13],0.326 µM (active)
same,IC50,[14],0.001 µM (active)
same,IC50,[15],> 20 µM (inactive)
same,IC50,[17],0.001 µM (active)
CC(C)(C)[S@@+]([O-])N1Cc2cc(C(=O)NCc3ccc4c(c3)OCO4)nc(-c3cccc(-c4ccccc4)c3)c2[C@H]1CCO,AC50,[31],0.309 µM (active)
C=CCN1C(=O)NC(=O)/C(=C(/CC)NCCN2CCOCC2)C1=O,IC50,[7],> 100 µM (active)
C=CCN1CC[C@]23CCCC[C@H]2[C@H]1Cc1ccc(O)cc13 [LEVALLORPHAN],IC50,[8],> 20 µM (inactive)
same,IC50,[9],> 20 µM (inactive)
same,IC50,[10],> 20 µM (inactive)
same,IC50,[11],> 20 µM (inactive)
same,IC50,[14],> 20 µM (inactive)
same,IC50,[15],> 20 µM (inactive)
same,IC50,[16],> 20 µM (inactive)
same,IC50,[17],> 20 µM (inactive)
Cc1onc(-c2ccccc2Cl)c1C(=O)Nc1sc2c(c1C#N)CCC2,IC50,[18],7.12 µM (active)
same,IC50,[19],5.86 µM (active)
same,EC50,[25],> 160 µM (inactive)
same,EC50,[26],1.59 µM (active)
O=C1NC(=O)N(Cc2ccco2)C(=O)/C1=C/NNC(=O)c1ccccc1,IC50,[24],> 94.2 µM (inactive)
